The structures appear in SMILES notation. Where a name gives a salt, the structure may show the parent alone.

This is an account of results in patent US20090181948A1, “DIAMINE DERIVATIVE” (KYOWA HAKKO KOGYO CO., LTD., priority 2005, published 2009).

For data set [1], the target named is T1, histamine H3 receptor (Rattus norvegicus, UniProt Q9QYN8).
T1 construct: from tissue; host or cells: rat striatum (Sprague-Dawley, male, 6 weeks), membrane homogenate
Description: Inhibitory effect on histamine release suppressive action of histamine H3 receptor agonist (Nα-methylhistamine) in rat forebrain synaptosomes. Type of data set: biochemical. To be noted: 1 μmol/L test compound and 1 μmol/L Nα-methylhistamine, potassium 30 mmol/L stimulation, read-out: Inhibition ratio of the [3H]-histamine release suppressive action of Nα-methylhistamine. On the procedure: To the forebrains of Sprague-Dawley male rats (6 to 8 weeks of age), a 30-fold volume of a 0.32 mol/L aqueous sucrose solution was added and the forebrains were homogenized. The resulting homogenate was centrifuged (1,000×g, 4° C., 10 min), and to the obtained supernatant, an equivalent volume of Krebs-Ringer solution [120 mmol/L sodium chloride, 0.8 mmol/L potassium chloride, 2.6 mmol/L calcium chloride, 0.67 mmol/L magnesium sulfate, 1.2 mmol/L potassium dihydrogen phosphate, 27.5 mmol/L sodium bicarbonate, 10 mmol/L glucose (pH 7.3)] was added, and the resulting mixture was centrifuged (10,000×g, 4° C., 15 min). To the obtained precipitate, a 15-fold volume of Krebs-Ringer solution was added to suspend the precipitate. Then, the concentration of protein in the resulting tissue homogenate (synaptosomes) was measured and used for a test.
To the synaptosomes (300 μg in terms of protein amount) prepared by the above-described method, a [^3H]-histidine solution [final concentration: […] (740 kBq)/mL]: 6 μl of a 37 MBq/mL (specific activity: […]) solution] was added, and the total volume was adjusted to 300 μL with Krebs-Ringer solution. Then, the resulting mixture was incubated at 37° C. for 30 minutes and centrifuged (10,000×g, 25° C., 3 min). To the resulting precipitate (synaptosomes), 300 μL of Krebs-Ringer solution was added, and the mixture was incubated at 37° C. for 5 minutes and centrifuged (10,000×g, 25° C., 3 min). This procedure was repeated 5 times, whereby washing of synaptosomes was carried out. The resulting synaptosomes were suspended in 100 μL of Krebs-Ringer solution, and the resulting suspension was used for the following procedure.
A test compound and N^α-methylhistamine were separately dissolved in Krebs-Ringer solution to give a concentration of 20 μmol/L (the resulting mixtures were referred to as a test compound solution and a N^α-methylhistamine solution, respectively). To 100 μL of the above-described suspended synaptosomes (300 μg in terms of protein amount), 140 μL of Krebs-Ringer solution was added. Then, 30 μL of the test compound solution and 30 μL of the N^α-methylhistamine solution were added thereto, and the resulting mixture was incubated at 37° C. for 2 minutes. Then, an equivalent volume of a stimulating solution [64 mmol/L sodium chloride, 56.8 mmol/L potassium chloride, 2.6 mmol/L calcium chloride, 0.67 mmol/L magnesium sulfate, 1.2 mmol/L potassium dihydrogen phosphate, 27.5 mmol/L sodium bicarbonate, 10 mmol/L glucose (pH 7.3)] (final potassium concentration: 30 mmol/L) was added, and the resulting mixture was incubated at 37° C. for 2 minutes to release [^3H]-histamine. The reaction mixture was centrifuged (10,000×g, 25° C., 3 min), and the obtained supernatant was passed through Amberlite CG-50 column (250 μL), and the non-adsorbed fractions were discarded. Then, 2 mL of 50 mmol/L [[…]]/hydrochloric acid (HCl) (pH 7.5) (Tris) was passed through the column 3 times, and 2 mL of distilled water, and 1.5 mL of a 0.2 mol/L aqueous sodium hydroxide solution were passed through the column in this order, and the eluted fractions were discarded. Then, 2 mL of a 0.2 mol/L aqueous sodium hydroxide solution was passed through the column, and the eluted fraction was recovered in a scintillation vial. Then, 8 mL of Ultimagold (Perkin Elmer) was added to the recovered eluted solution, and the radioactivity ([^3H]-histamine) was measured using a liquid scintillation counter. The inhibitory action of the test compound on the histamine release suppressive action of N^α-methylhistamine was evaluated by obtaining the inhibition ratio to the histamine release suppressive action in the presence of 1 μmol/L No-methylhistamine and 1 μmol/L of the test compound. The inhibition ratio of the [^3H]-histamine release suppressive action was calculated using the following Equation (2). […]

The target in data set [2] is T1, histamine H3 receptor. Description: Histamine H3 receptor binding assay ([3H]-Nα-methylhistamine binding to rat striatum homogenate). To be noted: 1 μmol/L test compound; [3H]-Nα-methylhistamine 1 nmol/L; striata of Sprague-Dawley male rats, 25° C., 1 hour; read-out: Inhibition ratio of [3H]-Nα-methylhistamine binding. In outline: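 Rat striatum membranes (20 μg protein) incubated with [3H]-Nα-methylhistamine 1 nmol/L in 50 mmol/L Tris/HCl pH 7.4, 5 mmol/L EDTA, 1 hour at 25° C; bound ligand by filtration and scintillation counting. Nonspecific binding defined with 10 μmol/L thioperamide; % inhibition reported at 1 μmol/L compound.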

T1 sequence (Q9QYN8 whole entry): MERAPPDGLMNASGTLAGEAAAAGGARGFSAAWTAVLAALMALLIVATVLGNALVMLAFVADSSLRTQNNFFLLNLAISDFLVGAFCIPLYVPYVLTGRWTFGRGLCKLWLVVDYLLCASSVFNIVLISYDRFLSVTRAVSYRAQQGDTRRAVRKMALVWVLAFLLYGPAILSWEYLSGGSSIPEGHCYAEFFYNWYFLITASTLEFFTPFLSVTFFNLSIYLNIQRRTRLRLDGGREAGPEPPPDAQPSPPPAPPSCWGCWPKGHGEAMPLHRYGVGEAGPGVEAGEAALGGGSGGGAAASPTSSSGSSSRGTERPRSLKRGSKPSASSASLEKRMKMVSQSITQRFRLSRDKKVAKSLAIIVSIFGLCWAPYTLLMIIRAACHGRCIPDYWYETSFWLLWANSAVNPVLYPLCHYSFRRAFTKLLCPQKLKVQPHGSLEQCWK

As for `N#CC(C#N)=C1N(CCCN2CCCCC2)CCN1C1CCN(CCF)CC1` [Compound 215, {1-[1-(2-Fluoroethyl)piperidin-4-yl]-3-(3-piperidinopropyl)imidazolidin-2-ylidene}malononitrile], the figures for the inhibition at 1 µM in data set [1] and in data set [2] were not below 70% and not below 80%, respectively.
`CC1CCCN1CCCN1CCN(CCCN2CCCCC2)C1=C(C#N)C#N` (stereo not drawn) [Compound 103, {1-[3-(2-Methylpyrrolidin-1-yl)propyl]-3-(3-piperidinopropyl)imidazolidin-2-ylidene}malononitrile]: the results for the inhibition at 1 µM in data set [1] and in data set [2] were not below 70% and not below 80%, respectively.
As to `N#CC(C#N)=C1N(CCCN2CCCCC2)CCN1C1CCN(Cc2ccccc2)CC1` [Compound 126, [1-(1-Benzylpiperidin-4-yl)-3-(3-piperidinopropyl)imidazolidin-2-ylidene]malononitrile], the inhibition at 1 µM in data set [1] was not below 70%; in data set [2], not below 80%.
Turning to `N#CC(C#N)=C1N(CCCCN2CCCCC2)CCN1CCN1CCCCC1` [Compound 7, [1-(4-Piperidinobutyl)-3-(2-piperidinoethyl)imidazolidin-2-ylidene]malononitrile], the inhibition at 1 µM was not below 70% in data set [1] and not below 80% in data set [2].
As to `CC1CCCN1CC1CCN(C(=C(C#N)C#N)N(C)CCN2CCCCC2)CC1` (stereo not drawn) [Compound 149, {[N-methyl-N-(2-piperidinoethyl)amino][4-(2-methylpyrrolidin-1-ylmethyl)piperidino]methylene}malononitrile], the inhibition at 1 µM was not below 70% in data set [1] and not below 80% in data set [2].
The matching figures for `C[C@@H]1CCC[C@H](C)N1CCN1CCN(CCCN2CCCCC2)C1=C(C#N)C#N` [Compound 51, {1-[2-(Cis-2,6-dimethylpiperidino)ethyl]-3-(3-piperidinopropyl)imidazolidin-2-ylidene}malononitrile]: not below 70% and not below 80%.
Take `CC(C)N1CCC(N2CCN(CCCN3CCOCC3)C2=C(C#N)C#N)CC1` [Compound 216, [1-(1-Isopropylpiperidin-4-yl)-3-(3-morpholinopropyl)imidazolidin-2-ylidene]malononitrile]: the inhibition at 1 µM in data set [1] was not below 70%; in data set [2] it was not below 80%.
For the compound `N#CC(C#N)=C1N(CCCN2CCCCC2)CCN1CCN1CCCCC1` [Compound 10, [1-(2-Piperidinoethyl)-3-(3-piperidinopropyl)imidazolidin-2-ylidene]malononitrile], the results for the inhibition at 1 µM in data set [1] and in data set [2] were not below 70% and not below 80%, respectively.
The corresponding values for `C[C@H]1CCCN1CCCN1CCN(CCCN2CCC[C@@H]2C)C1=C(C#N)S(=O)(=O)c1ccccc1` [Compound 247, {1,3-Bis[3-((S)-2-methylpyrrolidin-1-yl)propyl]imidazolidin-2-ylidene}benzenesulfonylacetonitrile monohydrochloride] are not below 70% and not below 80%.
For the compound `N#CC(C#N)=C1N(CCCN2CCCCC2)CCCN1CCCN1CCCCC1` [Compound 122, [1,3-Bis(3-piperidinopropyl)hexahydropyrimidin-2-ylidene]malononitrile], the values for the inhibition at 1 µM in data set [1] and in data set [2] were not below 70% and not below 80%, respectively.
With `CC1CCCN1CCCN1CCN(CCCN2CCC(F)(F)C2)C1=C(C#N)C#N` (stereo not drawn) [Compound 120, {1-[3-(3,3-Difluoropyrrolidin-1-yl)propyl]-3-[3-(2-methylpyrrolidin-1-yl)propyl]imidazolidin-2-ylidene}malononitrile], the melting point – broadly, the temperature, or range, at which the solid turns liquid – lay within 99 to 102 °C. Also, the inhibition at 1 µM in data set [2] is not below 80%.
The matching figures for `N#CC(C#N)=C1N(CCCN2CCCC2)CCN1CCN1CCCC1` [Compound 60, {1-[2-(Pyrrolidin-1-yl)ethyl]-3-[3-(pyrrolidin-1-yl)propyl]imidazolidin-2-ylidene}malononitrile]: 70 to 71 °C and not below 80%.
`CN1CCCC1CCN1CCN(CCC2CCCN2C)C1=C(C#N)C#N` (stereo not drawn) [Compound 4, {1,3-Bis[2-(1-methylpyrrolidin-2-yl)ethyl]imidazolidin-2-ylidene}malononitrile] returned a melting point of 121 to 123 °C. Also, the inhibition at 1 µM in data set [2] is not below 80%.
`C[C@@H]1CCCN1CCCN1CCN(CCN2CCCCC2)C1=C(C#N)C#N` [Compound 194, {1-[3-((R)-2-methylpyrrolidin-1-yl)propyl]-3-(2-piperidinoethyl)imidazolidin-2-ylidene}malononitrile] came in with a melting point of 74 to 76 °C. For the same compound, the inhibition at 1 µM in data set [2] is not below 80%.
`C[C@@H]1CCCN1CCCN1CCN(CCN2CCC[C@@H]2C)C1=C(C#N)C#N` [Compound 197, {3-[2-((S)-2-methylpyrrolidin-1-yl)ethyl]-1-[3-((R)-2-methylpyrrolidin-1-yl)propyl]imidazolidin-2-ylidene}malononitrile] came in with a melting point of 93 to 94 °C. For the same compound, the inhibition at 1 µM in data set [2] was not below 80%.
Turning to `CC1CCCN1CCCN1CCN(CCN2CCCC2)C1=C(C#N)C#N` (stereo not drawn) [Compound 61, {1-[3-(2-Methylpyrrolidin-1-yl)propyl]-3-[2-(pyrrolidin-1-yl)ethyl]imidazolidin-2-ylidene}malononitrile], the melting point is 95 to 96 °C. Moreover, the inhibition at 1 µM in data set [2] was not below 80%.
The corresponding values for `CC1CCCCN1CCN1CCN(CCCN2CCC[C@@H]2C)C1=C(C#N)C#N` (stereo partly drawn) [Compound 198, {3-[2-(2-Methylpiperidino)ethyl]-1-[3-((S)-2-methylpyrrolidin-1-yl)propyl]imidazolidin-2-ylidene}malononitrile] are 88 to 89 °C and not below 80%.
In turn, `N#CC(C#N)=C1N(CCCN2CCCCC2)CCN1CCN1CCCC1` [Compound 59, {1-(3-Piperidinopropyl)-3-[2-(pyrrolidin-1-yl)ethyl]imidazolidin-2-ylidene}malononitrile] had a melting point of 63 to 64 °C. In data set [2], the inhibition at 1 µM is not below 80%.
The matching figures for `CC1CCCN1C1CCN(C(NCCCN2CCCCC2)=C(C#N)C#N)CC1` (stereo not drawn) [Compound 163, {[4-(2-Methylpyrrolidin-1-yl)piperidino](3-piperidinopropylamino)methylene}malononitrile]: 83 to 84 °C and not below 80%.
The matching figures for `CC1CCCN1CCCN1C(=C(C#N)C#N)N(CCN2CCCCC2)c2ccccc21` (stereo not drawn) [Compound 200, {1-[3-(2-Methylpyrrolidin-1-yl)propyl]-3-(2-piperidinoethyl)benzimidazolidin-2-ylidene}malononitrile]: 85 to 86 °C and not below 80%.
`C[C@H]1CCCN1CCCN1CCN(CCN2CCCCC2)C1=C(C#N)C#N` [Compound 195, {1-[3-((S)-2-methylpyrrolidin-1-yl)propyl]-3-(2-piperidinoethyl)imidazolidin-2-ylidene}malononitrile] had a melting point of 70 to 71 °C. Besides, the inhibition at 1 µM in data set [2] is not below 80%.
